Measured values from patent US20170158735A1, “METHOD FOR PRODUCING A RECOMBINANT PEPTIDE AND RESULTANT PEPTIDE” ("IVIX" Ltd., priority 2012, published 2017).
Ends that are not written are not given here.

Test system: sexual behavior of female rats
Assay: Lordosis test: sexual behavior of ovariectomized hormonally stimulated female rats with a sexually active male
Assay type: in vivo, rat
Conditions: for Percentage of lordoses / Number of acts of proceptive behavior: ovariectomized hormonally stimulated female rats, progesterone 0.5 mg/rat, test product 100 μg/rat; for Percentage of lordoses: negative control 0.73 ± 0.12; for Number of acts of proceptive behavior: negative control 14 ± 4; for Effect on sexual motivation / reproductive- and sexual-function stimulating activity (in words): lordosis model, female rats, 100 μg/rat
Description: Sexual behavior was recorded in ovariectomized hormonally stimulated females in direct contact with the sexually active male, or when such a contact was impossible. […]
Sexual behavior was recorded in ovariectomized hormonally stimulated females in direct contact with the sexually active male, or when such a contact was impossible.

Substance | Percentage of lordoses (Table 4 / Example 8) | Number of acts of proceptive behavior (Table 4 / Example 8) [acts] | Percentage of lordoses (Table 5 / Example 9) | Effect on sexual motivation / reproductive- and sexual-function stimulating activity (in words)
Arg-Pro-Gly-Pro (RPGP) | 0.69 ± 0.14 | 15 ± 4 | – | –
Pro-Arg-Pro-Gly-Pro (PRPGP) | 0.73 ± 0.14 | 14 ± 6 | – | –
Pro-Gly-Pro (PGP) | 0.74 ± 0.09 | 13 ± 5 | – | –
TKPRPF | – | – | 0.94 ± 0.14 | intensification of sexual motivation
Thr-Lys-Pro (TKP) | 0.97±0.12 | 29±6 | 0.96 ± 0.12 | intensification of sexual motivation
Thr-Lys-Pro-Arg (TKPR) | – | – | – | lack of sexual motivation effect
Thr-Lys-Pro-Arg-Pro (TKPRP) | – | – | 0.99 ± 0.09 | intensification of sexual motivation
Thr-Lys-Pro-Phe (TKPF) | – | – | – | lack of sexual motivation effect
